# Legend:
# [1] = target: T1, androgen receptor in LNCaP cells (Homo sapiens, UniProt P10275, T878A); assay: AR transactivation luciferase assay (pMMTV-luc); assay type: cell-based
# T1 construct: LNCaP cells, that express endogenous AR; endogenous in cells; host or cells: LNCaP
# T1 sequence (P10275 1-920 T878A): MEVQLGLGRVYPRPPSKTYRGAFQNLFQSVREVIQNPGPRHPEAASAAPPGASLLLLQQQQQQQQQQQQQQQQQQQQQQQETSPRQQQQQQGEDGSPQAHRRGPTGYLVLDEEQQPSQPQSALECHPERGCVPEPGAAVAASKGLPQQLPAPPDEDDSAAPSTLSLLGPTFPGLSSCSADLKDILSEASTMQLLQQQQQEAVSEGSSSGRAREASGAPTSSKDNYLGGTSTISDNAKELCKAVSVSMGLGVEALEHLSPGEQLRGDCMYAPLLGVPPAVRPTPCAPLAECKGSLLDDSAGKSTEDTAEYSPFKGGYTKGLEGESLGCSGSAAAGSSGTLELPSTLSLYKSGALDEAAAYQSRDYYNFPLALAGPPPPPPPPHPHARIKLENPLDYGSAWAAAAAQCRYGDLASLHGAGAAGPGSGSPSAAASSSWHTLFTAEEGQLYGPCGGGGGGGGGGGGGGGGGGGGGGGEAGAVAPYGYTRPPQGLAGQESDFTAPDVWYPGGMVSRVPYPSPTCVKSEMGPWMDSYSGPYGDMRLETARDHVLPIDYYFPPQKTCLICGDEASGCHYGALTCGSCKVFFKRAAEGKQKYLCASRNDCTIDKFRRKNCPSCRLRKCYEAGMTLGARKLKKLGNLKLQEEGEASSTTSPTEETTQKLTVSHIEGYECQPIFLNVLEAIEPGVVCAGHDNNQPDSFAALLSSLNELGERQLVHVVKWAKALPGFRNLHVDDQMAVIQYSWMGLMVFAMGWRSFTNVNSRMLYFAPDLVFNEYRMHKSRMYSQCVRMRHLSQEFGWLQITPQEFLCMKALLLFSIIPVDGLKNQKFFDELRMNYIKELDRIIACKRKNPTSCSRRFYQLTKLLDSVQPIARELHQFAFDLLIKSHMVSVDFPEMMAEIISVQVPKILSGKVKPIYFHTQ
# Protocol: The LNCaP cells were grown and transiently transfected with pMMTV-neomycin-luciferase plasmid (300 ng/10^5 cells) in RPMI media supplemented with 10% FBS using polyfect transfection reagent (Qiagen, CA, USA) according to manufacturer’s instructions. Then, 24 h after transfection, the cell culture media were changed with media containing 5% charcoal-stripped FBS to reduce the contaminating steroids from the serum and incubated for an additional day before initiating the treatments. In case of PC-3 cells, they were similarly transfected, but in addition to pMMTV-neomycin-luciferase construct, they were also transfected with pSG5-hAR-puro plasmid (full length hAR in pSG5 expression vector) in the ratio of 5∶1 as indicated above. For experiments involving co-regulators, 50 ng of co-activator plasmids (25 ng each of GRIP-1 and SRC-1) along with pMMTV-neo-luc (250 ng) were transfected to LNCaP cells. To evaluate the transfection efficiency, 500 ng/105 cells of the SV40 promoter-Renilla luciferase (pRL-SV40) vector (Promega Madison, USA) were co-transfected as internal control. […] Each experimental point was performed in triplicate and varied by less than 10%. The values of luciferase for each lysates were normalized to the Renilla luciferase activity.
# PC-3 cells = assay: MTT cytotoxicity assay; assay type: cell-based; settings: Homo sapiens; PC-3, MTT, 24 h exposure, mean ± SEM; read-out: IC50 value (50% growth inhibition)
# Protocol: (§1) MTT assay was carried out as described previously. In brief, 5×10^3 cells in 200 μl of medium were seeded in 96-well plates (Griener, Germany). After 24 h, the cells were treated with various concentrations (0.1, 1, 10, 100 and 1000 μM) of RESV, PTER and conjugate. The control cells were treated with 0.1% DMSO (vehicle control). The cultured cells were assayed after 24 h by adding 20 μl of 5 mg/ml MTT followed by incubating at 37°C for 4 h. The MTT containing media was then aspirated and 200 μl DMSO (Himedia, Mumbai, India) was added to dissolve the formazone crystals. The optical density (OD) was measured at 570 nm using ELISA plate reader (Fluostar optima, BMG Labtech, Germany). The percentage inhibition was calculated as: [drawing 1]
# (§2) The dose response curve and IC50 values were obtained by nonlinear regression analysis [non-linear regression (sigmoidal dose response with variable slope)] using Graph Pad Prism, version 5.02 software (Graph Pad Software Inc., CA, USA).
# LNCaP cells = assay: MTT cytotoxicity assay; assay type: cell-based; settings: Homo sapiens, 24 h, 24 h exposure, mean ± SEM, read-out: IC50 value (50% growth inhibition)
# Protocol: as §1, §2
# CHO cells = assay: MTT cytotoxicity assay; assay type: cell-based; settings: Cricetulus griseus, CHO noncancer cells, 24 h exposure, read-out: IC50 value (50% growth inhibition)
# Protocol: as §1, §2
# COS-1 cells = assay: MTT cytotoxicity assay; assay type: cell-based; settings: Chlorocebus aethiops, COS-1 noncancer cells, 24 h exposure, read-out: IC50 value (50% growth inhibition)
# Protocol: as §1, §2
# [2] = test system: caspase-8 activity in PC-3 cells; assay: Caspase colorimetric protease assay; assay type: cell-based, human; settings: PC-3, 24 h, high dose
# Protocol: (§3) Caspase activity was determined using ApoTarget caspase colorimetric protease assay sampler kit (KHZ1001; Invitrogen) according to the manufacturer’s instructions. Briefly, both the PCa cells were treated with increasing doses of conjugate and RESV for 24 h. The cells were then collected, washed in PBS, and lysed in 50 μl lysis buffer on ice for 10 min. After centrifugation, the supernatant containing 150 μg proteins were incubated with 200 μM of caspase-3 (Ac-DEVD-pNA), caspase-8 (Ac-IETD-pNA) and caspase-9 (Ac-LEHD-pNA) substrates respectively in reaction buffer at 37°C for 1 h in 96 well flat bottom plate. Levels of released pNA were then measured at 405 nm wavelength with ELISA plate reader (Fluostar optima, BMG Labtech, Germany). The fold-increase in caspase-3, -8, and -9 activities were determined by direct comparison to the level of un-induced control. For the caspase inhibitor assay, cells were pretreated with a synthetic pan-caspase inhibitor (Z-VAD-FMK), caspase-8 inhibitor (Z-IETD-FMK) and caspase-9 inhibitor (Z-LEHD-FMK) for 1 h before the addition of conjugate and the cell death were analyzed by MTT assay as discussed earlier.
# [3] = test system: caspase-9 activity in PC-3 cells; assay: Caspase colorimetric protease assay; assay type: cell-based, human; settings: PC-3, 10, 20 and 40 μM, 24 h
# Protocol: as §3
# [4] = test system: caspase-3 activity in LNCaP cells; assay: Caspase colorimetric protease assay; assay type: cell-based, human; settings: 24 h
# Protocol: as §3
# [5] = test system: caspase-3 activity in PC-3 cells; assay: Caspase colorimetric protease assay; assay type: cell-based, human; settings: PC-3, 10, 20 and 40 μM, 24 h
# Protocol: as §3
structure (smiles),measurement,setting,value
"COc1cc(/C=C/c2ccc(O)c(/C=N/NC(N)=S)c2)cc(OC)c1 [conjugate, Pterostilbene-isothiocyanate conjugate]",transcriptional activation by compound alone,"[1]; 1–40 μM, without DHT",did not induce transcriptional activation
same,inhibition at 40 µM,[1]; read-out: inhibition of androgen-induced transactivation,~73%
same,IC50,PC-3 cells,45 ± 1.5 µM
same,IC50,LNCaP cells,40 ± 1.12 µM
same,IC50,CHO cells,> 100 µM
same,IC50,COS-1 cells,> 100 µM
same,caspase-8 activity,[2],no such induction was observed
same,caspase-9 enzyme activity,[3],dose-dependent augmentation
same,caspase-3 activity,[4],significant increase
same,caspase-3 enzyme activity,[5],dose-dependent augmentation
